Experimental findings from patent US6407288B1, “Naphthylsalicylanilides as antimicrobial and antiinflammatory agents” (The Research Foundation of State University of New York, priority 2000, dated 2002) are described below.

One experiment has as its system S. aureus. Kind of experiment: MIC microdilution, gram positive. It counts as cell-based, Staphlococcus aureus. In outline: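 Broth microdilution (modified NCCLS M7-A4): BHI for aerobes, supplemented half-strength BHI under 5% CO2/10% H2/N2 for anaerobes; 10 μL of ~1×10^8 CFU/mL inoculum; drugs 50 to 0.05 μg/assay from DMSO stock. Duplicates incubated 24–48 h; MIC = lowest concentration without visible growth. Staphylococcus R: coagulase-negative clinical isolate 00-045-1209.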
For orientation: Broth dilution looks for growth in wells or tubes with falling amounts of substance.

The subject of a further experiment is Lact 7496. The experiment in a line: MIC microdilution, gram positive. The format is cell-based, Lactobacillus rhamnosus (casei). The conditions noted are these: Table 2, Gram Positive. On the procedure:
(§1) The MIC's for the compounds were determined by a modified microdilution tube dilution method described in “Methods for Dilution Antimicrobial Susceptibility Tests for Bacteria that Grow Aerobically” (National Committee for Clinical Laboratory Standards Approved Standards, 1997, NCCLS document M7-A4). In general the modifications were made because of the unique growth requirements for the fastidious oral organisms and for those bacteria that require anaerobic conditions. Reference is also made to “Methods for Antimicrobial Susceptibility of Anaerobic Bacteria” (National Committee for Clinical Laboratory Standards Approved Standards, 1997, NCCLS document M11-A4). Briefly, the methods were as follows. Cultures were grown for 18-24hrs (aerobic bacteria) or 48-72 hrs (anaerobic bacteria) in the appropriate medium. For aerobic bacteria full strength brain heart infusion medium (BHI, Difco) was used. For anaerobic bacteria, half strength BHI (18.5 g/L) was supplemented by adding yeast extract (10 g/L), hemin (0.29 mL of a stock solution containing 0.1 g/200 mL dH2O) and menadione (15 mL of a stock solution containing 0.15 mL in 30 mL 95% EtOH) was used. Initial cultures were diluted to approximately 1×10^8 CFU/mL for use as an inoculum. Each assay received 10 μL of the inoculum. The drugs were prepared from a stock solution contained in dimethyl sulfoxide (DMSO) and diluted into the culture medium. Final concentrations of the drugs ranged from 50 to 0.05 μg/assay. The tests were run in duplicate and were incubated appropriately with regard to oxygen requirements for 24 to 48 hrs as required. Anaerobic incubation was an atmosphere of 5% CO2, 10% H2, with the balance N2. The lowest concentration of an antimicrobial agent at which no visible growth is noted was referred to as the MIC.

For a further experiment, the system named is P. acnes 11828. The experiment in a line: MIC microdilution, gram positive. The conditions noted are these: Table 1, Gram Positive. It counts as cell-based, Propionibacterium acnes. The essentials:
(§2)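 Modified NCCLS broth microdilution: aerobes in full-strength BHI, anaerobes in half-strength BHI with yeast extract, hemin and menadione, each well given 10 µL of a ~1×10^8 CFU/mL inoculum. Drugs ranged 50–0.05 µg/assay, run in duplicate, incubated 24–48 h, anaerobically under 5% CO2/10% H2/N2 where needed. MIC was the lowest concentration with no visible growth.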

A further experiment relates to P. acnes 6922. The experiment in a line: MIC microdilution, gram positive. The format is cell-based, Propionibacterium acnes. The conditions noted are these: Table 1, Gram Positive. In outline: as §2
The subject of another experiment is Pg 53977. The experiment in a line: MIC microdilution, gram negative. It counts as cell-based, Porphyromonas gingivalis. The essentials: (§3)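 Modified NCCLS broth microdilution; anaerobes grown 48-72 hrs in half-strength BHI with yeast extract, hemin and menadione, aerobes in full-strength BHI, inoculum ~1×10^8 CFU/mL (10 μL/assay). Drugs from DMSO stock, final 50 to 0.05 μg/assay, duplicate, 24 to 48 hrs (anaerobic: 5% CO2, 10% H2, N2); MIC = lowest concentration without visible growth.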

A further experiment concerns P. ging 381. Kind of experiment: MIC microdilution, gram negative. The format is cell-based, Porphyromonas gingivalis. In outline:
as §3

The subject of the next experiment is S. mutans. Kind of experiment: MIC microdilution, gram positive. The format is cell-based, Streptococcus mutans. The conditions noted are these: Table 1, Gram Positive. The essentials:
as §2

A further experiment deals with Aa Y4. The experiment in a line: MIC microdilution, gram negative. The format is cell-based, Actinobacillus actinomycetemcomitans. As to the method:
(§4) The MIC's for the compounds were determined by a modified microdilution tube dilution method described in “Methods for Dilution Antimicrobial Susceptibility Tests for Bacteria that Grow Aerobically” (National Committee for Clinical Laboratory Standards Approved Standards, 1997, NCCLS document M7-A4). In general the modifications were made because of the unique growth requirements for the fastidious oral organisms and for those bacteria that require anaerobic conditions. Reference is also made to “Methods for Antimicrobial Susceptibility of Anaerobic Bacteria” (National Committee for Clinical Laboratory Standards Approved Standards, 1997, NCCLS document M11-A4). Briefly, the methods were as follows. Cultures were grown for 18-24hrs (aerobic bacteria) or 48-72 hrs (anaerobic bacteria) in the appropriate medium. For aerobic bacteria full strength brain heart infusion medium (BHI, Difco) was used. For anaerobic bacteria, half strength BHI (18.5 g/L) was supplemented by adding yeast extract (10 g/L), hemin (0.29 mL of a stock solution containing 0.1 g/200 mL dH2O) and menadione (15 mL of a stock solution containing 0.15 mL in 30 mL 95% EtOH) was used. Initial cultures were diluted to approximately 1×10^8 CFU/mL for use as an inoculum. Each assay received 10 μL of the inoculum. The drugs were prepared from a stock solution contained in dimethyl sulfoxide (DMSO) and diluted into the culture medium. Final concentrations of the drugs ranged from 50 to 0.05 μg/assay. The tests were run in duplicate and were incubated appropriately with regard to oxygen requirements for 24 to 48 hrs as required. Anaerobic incubation was an atmosphere of 5% CO2, 10% H2, with the balance N2. The lowest concentration of an antimicrobial agent at which no visible growth is noted was referred to as the MIC. […] The method used was the same as described in Example 1.

The subject of another experiment is S. species R. Kind of experiment: Staphylococcus MIC. It counts as cell-based, staphylococcus species R. The conditions noted are these: second Table 5 (Example 5); strain 00-045-1209. As to the method: (§5) The MIC's for the compounds were determined by a modified microdilution tube dilution method described in “Methods for Dilution Antimicrobial Susceptibility Tests for Bacteria that Grow Aerobically” (National Committee for Clinical Laboratory Standards Approved Standards, 1997, NCCLS document M7-A4). In general the modifications were made because of the unique growth requirements for the fastidious oral organisms and for those bacteria that require anaerobic conditions. Reference is also made to “Methods for Antimicrobial Susceptibility of Anaerobic Bacteria” (National Committee for Clinical Laboratory Standards Approved Standards, 1997, NCCLS document M11-A4).
(§6) Briefly, the methods were as follows. Cultures were grown for 18-24hrs (aerobic bacteria) or 48-72 hrs (anaerobic bacteria) in the appropriate medium. For aerobic bacteria full strength brain heart infusion medium (BHI, Difco) was used. For anaerobic bacteria, half strength BHI (18.5 g/L) was supplemented by adding yeast extract (10 g/L), hemin (0.29 mL of a stock solution containing 0.1 g/200 mL dH2O) and menadione (15 mL of a stock solution containing 0.15 mL in 30 mL 95% EtOH) was used. Initial cultures were diluted to approximately 1×10^8 CFU/mL for use as an inoculum. Each assay received 10 μL of the inoculum. The drugs were prepared from a stock solution contained in dimethyl sulfoxide (DMSO) and diluted into the culture medium. Final concentrations of the drugs ranged from 50 to 0.05 μg/assay. The tests were run in duplicate and were incubated appropriately with regard to oxygen requirements for 24 to 48 hrs as required. Anaerobic incubation was an atmosphere of 5% CO2, 10% H2, with the balance N2. The lowest concentration of an antimicrobial agent at which no visible growth is noted was referred to as the MIC.
This embodiment describes the sensitivity of various staphylococcus strains to the compounds of the present invention. The staphylococcus species R is a strain 00-045-1209 from the Children's Hospital in Buffalo. It was isolated from the peritoneal cavity (fluid culture) of an individual. It was coagulase negative. The sensitivity of this strain was tested agaisnt several known antibiotics.

The subject of the next experiment is B. fragilis. Kind of experiment: MIC microdilution, gram negative. The format is cell-based, Bacteroides fraglis. As to the method: as §4
The test system of another experiment is Fuso. 25586. The experiment in a line: MIC microdilution, gram negative. It counts as cell-based, Fusobacterium nucleatum. As to the method:
as §4

The subject of the next experiment is Str. pn. Kind of experiment: Mean Streptococcus MIC. It counts as cell-based. The conditions noted are these: Table 5, mean. On the procedure:
as §5, §6
(§7) This embodiment illustrates the efficacy of the compounds of the present invention against Streptococcus strains. One of the strains, Str.pn.R was obtained from the Children's Hospital in Buffalo (strain 00-041-0614). […] The sensitivity of this strain was tested against several known antibiotics.

The next experiment relates to Str. pn. R. The experiment in a line: Mean Streptococcus MIC. The format is cell-based. Particulars: Table 5, mean; strain resistant to penicillin and erythromycin. On the procedure:
as §5, §6, §7

The test system of a further experiment is Str. pyo. Kind of experiment: Mean Streptococcus MIC. The format is cell-based. The conditions noted are these: Table 5, mean. As to the method: as §5, §6, §7
Another experiment relates to S.salivarius. Kind of experiment: MIC microdilution, gram positive. The format is cell-based, Streptococcus salivarius. Particulars: Table 1, Gram Positive. The essentials: as §2
The subject of another experiment is M. luteus. Kind of experiment: MIC microdilution, gram positive. The conditions noted are these: Table 2, Gram Positive. It counts as cell-based, Micrococcus luteus. On the procedure:
as §1

The test system of the next experiment is S. sanguis. Kind of experiment: MIC microdilution, gram positive. It counts as cell-based, Streptococcus sanguis. Particulars: Table 1, Gram Positive. In outline:
as §2

Another experiment relates to A. viscosus. Kind of experiment: MIC microdilution, gram positive. The format is cell-based, Actinomyces viscosus. Particulars: Table 2, Gram Positive. In outline:
as §2

The mark [1] stands for this setting: Table 3 printed a second time, Gram Negative.

Turning to `CCCCCCCCCCCCS(=O)(=O)c1ccc(O)c(C(=O)Nc2cccc(C(F)(F)F)c2)c1` [TMF-12, reference compound], the “MIC S. aureus” value in the experiment on S. aureus (Table 2, Gram Positive) was “NE (NE indicates that the drug was not effective at a concentration >50 micrograms/ml)”; against S. aureus (second Table 5 (Example 5)), “NE (NE indicates that the drug was not effective at a concentration >50 micrograms/ml)”. Also, the “MIC Lact 7496” value in the experiment on Lact 7496 was found to be 3.1 micrograms/ml. Also, in the experiment on P. acnes 11828, the “MIC P. acnes 11828” value is 0.2 micrograms/ml. The “MIC P. acnes 6922” value in the experiment with P. acnes 6922 is 0.4 micrograms/ml. Moreover, the “MIC Pg 53977” value against Pg 53977 (Table 3, Gram Negative) amounted to 0.4 micrograms/ml; in the experiment with Pg 53977 (setting [1]) it was 0.4 micrograms/ml. Further, the “MIC P. ging 381” value with P. ging 381 (Table 3, Gram Negative) turned out to be 0.4 micrograms/ml; with P. ging 381 (setting [1]), 0.4 micrograms/ml. In addition, the “MIC S. mutans” value with S. mutans was “NE (NE indicates that the drug was not effective at a concentration >50 micrograms/ml)”. Further, the “MIC Aa Y4” value was “NE (NE indicates that the drug was not effective at a concentration >50 micrograms/ml)” in the experiment with Aa Y4 (Table 3, Gram Negative) and “NE (NE indicates that the drug was not effective at a concentration >50 micrograms/ml)” against Aa Y4 (setting [1]). Besides, in the experiment with S. species R, the “MIC S. species R” value is reported as “NE (NE indicates that the drug was not effective at a concentration >50 micrograms/ml)”. The “MIC B. fragilis” value is recorded as “NE (NE indicates that the drug was not effective at a concentration >50 micrograms/ml)” against B. fragilis (Table 3, Gram Negative) and “NE (NE indicates that the drug was not effective at a concentration >50 micrograms/ml)” against B. fragilis (setting [1]). The “MIC Fuso. 25586” value in the experiment with Fuso. 25586 (Table 3, Gram Negative) is “NE (NE indicates that the drug was not effective at a concentration >50 micrograms/ml)”; against Fuso. 25586 (setting [1]) it was “NE (NE indicates that the drug was not effective at a concentration >50 micrograms/ml)”. For the same compound, the “Mean Streptococcus MIC values Str. pn” value with Str. pn is 0.65 micrograms/ml. Moreover, the “Mean Streptococcus MIC values Str. pn. R” value with Str. pn. R is on record as 0.78 micrograms/ml. In the experiment with Str. pyo, the “Mean Streptococcus MIC values Str. pyo” value worked out at 0.47 micrograms/ml. In the experiment on S.salivarius, the “MIC S.salivarius” value is reported as “NE (NE indicates that the drug was not effective at a concentration >50 micrograms/ml)”. Besides, in the experiment on M. luteus, the “MIC M. luteus” value is 0.8 micrograms/ml. Also, the “MIC S. sanguis” value in the experiment with S. sanguis was 12.5 micrograms/ml. Also, the “MIC A. viscosus” value in the experiment on A. viscosus turned out to be 1.6 micrograms/ml.
